From patent US8952024B2, “Herbicidal pyrimidone derivatives” (E I du Pont de Nemours and Company, priority 2009, dated 2015)

Legend:
Experiment in all cases: Test B pre-/postemergence plant response
Format in all cases: in vivo
[1] = tested on: Surinam grass (Brachiaria decumbens)
In short: (§1)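 Plants treated either at seeding (loam/sand soil) or postemergence at 2 to 18 cm height, using a surfactant-containing non-phytotoxic solvent formulation. Evaluation was visual after 13 to 15 days, 0 to 100 scale relative to controls.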

[2] = tested on: lambsquarters (Chenopodium album)
In short: as §1

[3] = tested on: sunflower (common oilseed sunflower, Helianthus annuus); settings: Preemergence
In short: as §1

corn (Zea mays) = tested on: corn (Zea mays)
In short: as §1

[4] = tested on: goosegrass (Eleusine indica)
In short: as §1

[5] = tested on: woolly cupgrass (Eriochloa villosa)
In short: as §1

[6] = tested on: large crabgrass (Digitaria sanguinalis)
In short: as §1

[7] = tested on: pigweed (Amaranthus retroflexus)
In short: as §1

[8] = tested on: galium (catchweed bedstraw, Galium aparine); settings: Preemergence
In short: as §1

[9] = tested on: Italian ryegrass (Lolium multiflorum)
In short: as §1

[10] = tested on: nightshade (eastern black nightshade, Solanum ptycanthum); settings: Preemergence
In short: as §1

[11] = tested on: goosegrass (Eleusine indica); settings: Preemergence, 62 g ai/ha; scale 0 to 100, 0 no effect, 100 complete control
[12] = 31 g ai/ha, postemergence, scale 0 to 100, 0 is no effect, 100 is complete control
[13] = 250 g ai/ha, Preemergence, 0 to 100 scale
[14] = Postemergence, 62 g ai/ha, scale 0 (no effect) to 100 (complete control), 13 to 15 days
[15] = Postemergence, 125 g ai/ha, visual rating after 13 to 15 days, scale 0 (no effect) to 100 (complete control)
[16] = Preemergence, 31 g ai/ha, scale 0 to 100 (0 no effect, 100 complete control)
[17] = Preemergence, 125 g ai/ha, 0 to 100 scale
[18] = Postemergence, 250 g ai/ha, scale 0 to 100
[19] = Preemergence, 62 g ai/ha, scale 0 to 100, 0 no effect, 100 complete control
[20] = 31 g ai/ha, scale 0 to 100 (0 no effect, 100 complete control)
[21] = 62 g ai/ha, scale 0 to 100, 0 no effect, 100 complete control

In the case of CCn1c(-c2ccccc2)ncc(C(=O)C2=C(O)CCCC2=O)c1=O [Compound 49], the “Plant response rating, Surinam Grass” value [1, 12] was 15, the “Plant response rating, Surinam Grass” value [1, 13] was 85 and the “Plant response rating, Surinam Grass” value [1, 14] was 30. The “Plant response rating, Surinam Grass” value [1, 15] was 55, the “Plant response rating, Surinam Grass” value [1, 16] was 0 and the “Surinam Grass plant response rating” value [1, 17] was 75. For the same compound, the “Plant response rating, Lambsquarters” value [2, 12] was 70, the “Plant response rating, Lambsquarters” value [2, 13] was 98 and the “Plant response rating, Lambsquarters” value [2, 14] was 80. For the same compound, the “Plant response rating, Lambsquarters” value [2, 15] was 90, the “Lambsquarters plant response rating” value [2, 18] was 98 and the “Plant response rating, Lambsquarters” value [2, 16] was 95. The “Plant response rating, Lambsquarters” value [2, 19] was 95, the “Lambsquarters plant response rating” value [2, 17] was 98 and the “Plant response rating, Sunflower” value ([3]; 250 g ai/ha, 0 to 100 scale) was 75. For the same compound, the “Plant response rating, Sunflower” value [3, 20] was 60, the “Sunflower plant response rating” value ([3]; 125 g ai/ha, 0 to 100 scale) was 75 and the “Plant response rating, Corn” value (corn (Zea mays); [12]) was 5. The “Plant response rating, Corn” value (corn (Zea mays); [13]) was 0, the “Plant response rating, Corn” value (corn (Zea mays); [14]) was 5 and the “Plant response rating, Corn” value (corn (Zea mays); [15]) was 5. The “Corn plant response rating” value (corn (Zea mays); [18]) was 15, the “Plant response rating, Corn” value (corn (Zea mays); [16]) was 0 and the “Plant response rating, Corn” value (corn (Zea mays); [19]) was 0. The “Corn plant response rating” value (corn (Zea mays); [17]) was 0, the “Plant response rating, Goosegrass” value [4, 12] was 65 and the “Plant response rating, Goosegrass” value [4, 13] was 100. For the same compound, the “Plant response rating, Goosegrass” value [4, 14] was 70, the “Plant response rating, Goosegrass” value [4, 15] was 70 and the “Goosegrass plant response rating” value [4, 18] was 70. The “Plant response rating, Goosegrass” value [4, 16] was 20, the “Goosegrass plant response rating” value [4, 17] was 98 and the “Plant response rating, Cupgrass, Woolly” value [5, 12] was 50. For the same compound, the “Plant response rating, Cupgrass, Woolly” value [5, 13] was 20, the “Plant response rating, Cupgrass, Woolly” value [5, 14] was 50 and the “Plant response rating, Cupgrass, Woolly” value [5, 15] was 55. For the same compound, the “Cupgrass, Woolly plant response rating” value [5, 18] was 55, the “Plant response rating, Cupgrass, Woolly” value [5, 16] was 0 and the “Plant response rating, Cupgrass, Woolly” value [5, 19] was 0. For the same compound, the “Cupgrass, Woolly plant response rating” value [5, 17] was 0, the “Plant response rating, Crabgrass, Large” value [6, 12] was 75 and the “Plant response rating, Crabgrass, Large” value [6, 13] was 100. The “Plant response rating, Crabgrass, Large” value [6, 14] was 75, the “Plant response rating, Crabgrass, Large” value [6, 15] was 80 and the “Crabgrass, Large plant response rating” value [6, 18] was 85. The “Plant response rating, Crabgrass, Large” value [6, 16] was 75, the “Plant response rating, Crabgrass, Large” value [6, 19] was 95 and the “Crabgrass, Large plant response rating” value [6, 17] was 98. For the same compound, the “Plant response rating, Pigweed” value [7, 12] was 80, the “Plant response rating, Pigweed” value [7, 13] was 100 and the “Plant response rating, Pigweed” value [7, 14] was 90. The “Plant response rating, Pigweed” value [7, 15] was 95, the “Plant response rating, Pigweed” value [7, 16] was 100 and the “Pigweed plant response rating” value [7, 17] was 100. The “Plant response rating, Galium” value ([8]; 250 g ai/ha, 0 to 100 scale) was 95, the “Plant response rating, Galium” value [8, 20] was 0 and the “Plant response rating, Galium” value [8, 21] was 80. The “Galium plant response rating” value ([8]; 125 g ai/ha, 0 to 100 scale) was 90, the “Plant response rating, Ryegrass, Italian” value [9, 12] was 0 and the “Plant response rating, Ryegrass, Italian” value [9, 13] was 5. The “Plant response rating, Ryegrass, Italian” value [9, 14] was 0, the “Plant response rating, Ryegrass, Italian” value [9, 15] was 0 and the “Plant response rating, Ryegrass, Italian” value [9, 16] was 0. The “Ryegrass, Italian plant response rating” value [9, 17] was 0, the “Plant response rating, Nightshade” value ([10]; 250 g ai/ha, 0 to 100 scale) was 98 and the “Plant response rating, Nightshade” value [10, 20] was 98. For the same compound, the “Plant response rating, Nightshade” value [10, 21] was 98, the “Nightshade plant response rating” value ([10]; 125 g ai/ha, 0 to 100 scale) was 98 and the “Plant response rating, Goosegrass” value [11] was 95.
